Among the data in the Kinase Knowledgebase extract (Sharma et al. 2016) are Ki values, retold here.

The target of this assay is PIK3CG (human) (UniProt P48736). Kind of assay: Inhibition of PIK3CG Kinase Activity.
PIK3CG (human), sequence (P48736 whole entry, looked up): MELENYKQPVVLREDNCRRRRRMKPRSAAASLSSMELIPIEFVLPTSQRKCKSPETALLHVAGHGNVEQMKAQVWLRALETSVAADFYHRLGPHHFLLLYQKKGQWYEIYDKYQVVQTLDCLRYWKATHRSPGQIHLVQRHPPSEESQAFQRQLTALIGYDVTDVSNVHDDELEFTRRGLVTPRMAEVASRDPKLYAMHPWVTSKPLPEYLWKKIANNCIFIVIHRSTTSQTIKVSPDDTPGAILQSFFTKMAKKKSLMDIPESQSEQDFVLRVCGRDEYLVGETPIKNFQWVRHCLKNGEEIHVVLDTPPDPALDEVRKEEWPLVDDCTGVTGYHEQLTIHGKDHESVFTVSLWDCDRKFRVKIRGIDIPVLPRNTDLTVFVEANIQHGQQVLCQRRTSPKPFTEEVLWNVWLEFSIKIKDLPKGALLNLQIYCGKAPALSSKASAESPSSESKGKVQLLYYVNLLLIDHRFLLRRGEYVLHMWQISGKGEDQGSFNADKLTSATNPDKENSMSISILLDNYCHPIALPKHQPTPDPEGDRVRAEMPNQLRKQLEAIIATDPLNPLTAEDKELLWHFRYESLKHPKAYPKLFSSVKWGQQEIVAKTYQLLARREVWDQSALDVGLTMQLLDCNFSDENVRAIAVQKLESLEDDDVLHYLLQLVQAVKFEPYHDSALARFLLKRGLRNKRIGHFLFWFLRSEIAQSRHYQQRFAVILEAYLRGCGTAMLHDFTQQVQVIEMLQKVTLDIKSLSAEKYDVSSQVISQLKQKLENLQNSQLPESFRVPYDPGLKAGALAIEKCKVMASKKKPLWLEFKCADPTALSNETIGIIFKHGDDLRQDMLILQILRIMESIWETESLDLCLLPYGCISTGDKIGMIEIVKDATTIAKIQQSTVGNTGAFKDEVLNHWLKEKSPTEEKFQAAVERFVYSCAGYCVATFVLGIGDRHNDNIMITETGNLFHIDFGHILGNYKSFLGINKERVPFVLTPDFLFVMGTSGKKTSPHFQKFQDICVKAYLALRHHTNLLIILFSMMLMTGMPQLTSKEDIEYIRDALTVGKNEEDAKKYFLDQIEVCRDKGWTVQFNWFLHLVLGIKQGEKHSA
In general, Ki refers to a dissociation constant, usually derived from enzyme kinetics or from competition with a known ligand. Read a high Ki as lower affinity. For `Cc1cc(-c2cncc(OCC(F)F)c2)nc2c1C(=O)N(c1cnn(CC(F)(F)F)c1)[C@@H]2C`, the inhibitory constant (Ki) was below 100 nM.
On to `COc1cc(-c2ccc3c(n2)[C@H](C)N(c2ccn(CC(C)(C)F)n2)C3=O)cnc1OC`, for which the Ki was below 100 nM.
The figure for `CCOc1cncc(-c2cc(C)c3c(n2)[C@@H](C)N(c2cnn(CC(F)(F)F)c2)C3=O)c1` is below 100 nM.
Regarding `CCOc1ncc(-c2ccc3c(n2)CN(c2cnn(CC#N)c2)C3=O)cc1OC`, the inhibition constant (Ki) was below 100 nM.
`Cc1cc(-c2cncc(C(=O)N(C)C(C)C)c2)nc2c1C(=O)N(c1cnn(CC(F)(F)F)c1)C2(C)C` yielded a Ki below 100 nM.
The figure for `CCOc1cc(-c2cc(C)c3c(n2)C(C)(C)N(c2cnn(CC(F)F)c2)C3=O)cnc1C` is below 100 nM; for `COc1cncc(-c2cc(C)c3c(n2)[C@H](C)N(c2ccn(C[C@H](C)O)n2)C3=O)c1` it is below 100 nM.
The figure for `Cc1cc(-c2cncc(OCC(F)F)c2)nc2c1C(=O)N(c1cnn(CC(F)F)c1)C2(C)C` is below 100 nM.
Molecule `COc1cc(-c2cc(C)c3c(n2)[C@H](C)N(c2cnn(CC(F)(F)F)c2)C3=O)cnc1C` yielded a Ki below 100 nM.
In the case of `COCn1cc(N2Cc3nc(-c4cnc(OC)c(OC)c4)cc(C)c3C2=O)cn1`, the inhibition constant Ki is below 100 nM.
The figure for `COc1cc(-c2cc(C)c3c(n2)CN(c2cncc(F)c2)C3=O)cnc1OC` is below 100 nM; for `Cc1cc(-c2cncc(C#N)c2)nc2c1C(=O)N(c1cnn(CC#N)c1)C2` it is below 100 nM.
`COc1cc(-c2ccc3c(n2)CN(c2ccn(CC4COCCO4)n2)C3=O)cnc1OC` (centres undefined) showed a Ki below 100 nM.
The figure for `COc1cc(-c2ccc3c(n2)CN(c2ccc(N4CCC[C@@H]4CO)nc2)C3=O)cnc1OC` is below 100 nM; for `COc1ccc(-c2ccc3c(n2)CN(c2cnn(CC#N)c2)C3=O)c(C)n1` it is 100 to 490 nM; for `CCc1cc(N2Cc3nc(-c4cnc(OC)c(OC)c4)cc(C)c3C2=O)nn1CC(F)(F)F` it is below 100 nM.
The figure for `COc1cc(-c2ccc3c(n2)CN(c2cnn(CCn4cncn4)c2)C3=O)cnc1OC` is below 100 nM; for `CCCOc1cc(-c2cc(C)c3c(n2)C(C)(C)N(c2cnn(CC#N)c2)C3=O)cnc1CC` it is below 100 nM.
On to `Cc1cc(-c2cncc(S(C)(=O)=O)c2)nc2c1C(=O)N(c1cnn(CC(F)(F)F)c1)[C@@H]2C`, for which the Ki was below 100 nM.
The figure for `COc1cncc(-c2cc(C)c3c(n2)CN(c2cnn(CC(F)(F)F)c2)C3=O)c1` is below 100 nM; for `Cc1cc(-c2cncc(OC(F)F)c2)nc2c1C(=O)N(c1cnn(CC(F)(F)F)c1)C2` it is below 100 nM.
The figure for `COC(=O)CC1c2nc(-c3cnc(OC)c(OC)c3)ccc2C(=O)N1c1cnn(CC(F)(F)F)c1` (centres undefined) is below 100 nM; for `COc1ccc(-c2cc(C)c3c(n2)CN(c2cnn(CC(F)(F)F)c2)C3=O)cn1` it is below 100 nM; for `Cc1cc(-c2cncc(OC(F)F)c2)nc2c1C(=O)N(c1ccnc(F)c1)C2C` (centres undefined) it is below 100 nM.
The figure for `CCOc1cc(-c2ccc3c(n2)CN(c2cnn(CC#N)c2)C3=O)cnc1OCC` is below 100 nM; for `Cc1cc(-c2cncc(S(=O)(=O)NC(C)C)c2)nc2c1C(=O)N(c1cnn(CC(F)(F)F)c1)C2(C)C` it is below 100 nM.
On to `CCCOCCOc1ncc(-c2cc(C)c3c(n2)CN(c2cnn(CC(F)(F)F)c2)C3=O)cc1OC`, for which the inhibitory constant (Ki) was in the range of 100 to 490 nM.
The figure for `Cc1cc(-c2cncc(OC(C)C)c2)nc2c1C(=O)N(c1cnn(CC(F)(F)F)c1)C2(C)C` is below 100 nM; for `CCCOc1cc(-c2cc(C)c3c(n2)CN(c2cn[nH]c2)C3=O)cnc1OC` it is below 100 nM.
The figure for `COc1cc(-c2ccc3c(n2)CN(c2cnn(CCn4nccc4C)c2)C3=O)cnc1OC` is 100 to 490 nM.
In the case of `Cc1cc(-c2cncc(C(=O)NCC(F)F)c2)nc2c1C(=O)N(c1cnn(CC(F)(F)F)c1)C2(C)C`, the Ki was below 100 nM.
The figure for `COc1cc(-c2ccc3c(n2)CN(c2ccn(C)n2)C3=O)cnc1OC` is below 100 nM; for `COc1cc(-c2ccc3c(n2)[C@H](N2CCOCC2)N(c2cnn(CC(F)(F)F)c2)C3=O)cnc1OC` it is below 100 nM.
In turn, `COc1cc(-c2cc(C)c3c(n2)CN(c2cnn(C(C)(C)C(N)=O)c2)C3=O)cnc1OC` returned a Ki below 100 nM.
`COc1cc(-c2ccc3c(n2)CN(c2cnn(Cc4cn(C)cn4)c2)C3=O)cnc1OC`: the Ki was below 100 nM.
The figure for `COc1cc(-c2cc(C)c3c(n2)CN(c2cnccn2)C3=O)cnc1OC` is below 100 nM.
Molecule `CCn1cc(N2Cc3nc(-c4cnc(OCCOC)c(OC)c4)cc(C)c3C2=O)cn1` yielded an inhibition constant (Ki) below 100 nM.
The figure for `CCOCCCOc1cc(-c2cc(C)c3c(n2)CN(c2cnn(CC(F)(F)F)c2)C3=O)cnc1OC` is below 100 nM.
The figure for `Cc1cc(-c2cncc(C(=O)N3CCCC3)c2)nc2c1C(=O)N(c1cnn(CC(F)(F)F)c1)C2` is 100 to 490 nM.
Molecule `CCOc1cncc(-c2cc(C)c3c(n2)C(C)(C)N(c2cnn(CC#N)c2)C3=O)c1` showed an inhibition constant (Ki) below 100 nM.
The figure for `Cc1cc(-c2cncc(OC(C)C)c2)nc2c1C(=O)N(c1cnn(CC(F)(F)F)c1)C2` is below 100 nM; for `CCn1ccc(N2C(=O)c3c(C)cc(-c4cncc(OCC(F)F)c4)nc3[C@@H]2C)n1` it is 100 to 490 nM.
The figure for `COc1cncc(-c2cc(C)c3c(n2)C2(CCOCC2)N(c2cnn(CC(F)(F)F)c2)C3=O)c1` is below 100 nM; for `Cc1cc(-c2cncc(OCC(F)F)c2)nc2c1C(=O)N(c1cnn(CC(F)F)c1)C2` it is below 100 nM.
The figure for `Cc1cc(-c2cncc(OC(F)F)c2)nc2c1C(=O)N(c1cnn(CC(F)(F)F)c1)C2C` (centres undefined) is below 100 nM; for `COc1cc(-c2ccc3c(n2)CN(c2ccn(CC(F)F)c(=O)c2)C3=O)cnc1OC` it is below 100 nM.
The molecule `CCOc1ncc(-c2cc(C)c3c(n2)C(OC(C)C)N(c2cnn(CC(F)(F)F)c2)C3=O)cc1OC` (centres undefined) showed a Ki below 100 nM.
The figure for `COc1cncc(-c2cc(C)c3c(n2)C(C)(C)N(c2cc[nH]n2)C3=O)c1` is 100 to 490 nM.
The figure for `COc1cc(-c2ccc3c(n2)CN(c2cnn(CCCO)c2)C3=O)cnc1OC` is below 100 nM; for `COCCOc1ncc(-c2cc(C)c3c(n2)CN(c2cnn(CC#N)c2)C3=O)cc1OC` it is below 100 nM; for `COc1ccc(-c2cc(C)c3c(c2)CN(c2cnn(CC(F)(F)F)c2)C3=O)nc1OC` it is below 100 nM.
The figure for `COc1ncc(-c2cc(C)c3c(c2)C(C)N(c2cnn(CC(F)(F)F)c2)C3=O)nc1OC` (centres undefined) is below 100 nM; for `CCNC(=O)c1cc(-c2cc(C)c3c(n2)C(C)N(c2cnn(CC(F)(F)F)c2)C3=O)cnc1OC` (centres undefined) it is below 100 nM; for `COc1cc(-c2cc(C)c3c(n2)C(C)(C)N(c2cnn(CC(F)(F)F)c2)C3=O)cnc1F` it is below 100 nM.
As to `CCn1cc(N2C(=O)c3c(C)cc(-c4cncc(OC)c4)nc3C2(C)C)cn1`, the Ki is below 100 nM.
The figure for `C=C(F)Cn1cc(N2C(=O)c3ccc(-c4cnc(OC)c(OC)c4)nc3C2(C)C)cn1` is below 100 nM; for `COCCOCCOc1ncc(-c2cc(C)c3c(n2)CN(c2cnn(CC(F)(F)F)c2)C3=O)cc1OC` it is below 100 nM.
The figure for `COc1cc(-c2cc(C)c3c(c2)CN(c2cnn(CC#N)c2)C3=O)cnc1OC` is below 100 nM; for `Cc1cc(-c2cncc(OC(F)F)c2)cc2c1C(=O)N(c1cnn(CC(F)(F)F)c1)C2C` (centres undefined) it is below 100 nM; for `COc1cncc(-c2cc(C)c3c(n2)CN(c2ccn(CC(C)(C)O)n2)C3=O)c1` it is below 100 nM.
The figure for `COCc1cc(N2Cc3nc(-c4cnc(OC)c(OC)c4)ccc3C2=O)nn1C[C@H](C)O` is below 100 nM.
The molecule `COCCn1cc(N2Cc3nc(-c4cnc(OC)c(OC)c4)ccc3C2=O)cn1` showed an inhibition constant Ki below 100 nM.
The figure for `COc1cc(-c2cc(C)c3c(n2)CN(c2ccn(C(C)(C)C#N)n2)C3=O)cnc1OC` is below 100 nM; for `CCOc1ncc(-c2cc(C)c3c(n2)C2(CCCO2)N(c2ccn(CC)n2)C3=O)cc1OC` (centres undefined) it is 100 to 490 nM.
The figure for `Cc1cc(-c2cncc(N)c2)nc2c1C(=O)N(c1cnn(CC(F)(F)F)c1)C2(C)C` is below 100 nM; for `COc1cc(-c2ccc3c(n2)CN(c2cnn(CC4CCN(C(=O)OC(C)(C)C)CC4)c2)C3=O)cnc1OC` it is 100 to 490 nM; for `CCOc1cc(-c2cc(C)c3c(n2)C(C)N(c2cnn(CC(F)F)c2)C3=O)cnc1C` (centres undefined) it is below 100 nM.
With `COc1cc(-c2cc(C)c3c(c2)CN(c2cnn([C@H](CO)C(F)(F)F)c2)C3=O)cnc1OC`, the Ki is below 100 nM.
The figure for `COc1cc(-c2cc(C)c3c(n2)C(C)N(c2cnn(CC(F)(F)F)c2)C3=O)cnc1OC(C)C` (centres undefined) is below 100 nM; for `COc1cc(-c2ccc3c(n2)CN(c2cnn(Cc4csc(C)n4)c2)C3=O)cnc1OC` it is below 100 nM.
`CCOc1cncc(-c2cc(C)c3c(n2)C(OC)N(c2cnn(CC(F)(F)F)c2)C3=O)c1` (centres undefined): the inhibitory constant (Ki) was below 100 nM.
The figure for `COc1cc(-c2cc(C)c3c(n2)C2(CCOCC2)N(c2cnn(C(C)(C)C#N)c2)C3=O)cnc1OC` is below 100 nM.
As for `COc1cc(-c2cc(C)c3c(n2)[C@]2(CCCO2)N(c2cnn(CC(F)(F)F)c2)C3=O)cnc1OC(C)C`, the Ki was below 100 nM.
The figure for `COCCOCCOc1ncc(-c2cc(C)c3c(n2)CN(c2cnn(CC#N)c2)C3=O)cc1OC` is below 100 nM.
The figure for `Cc1ncc(-c2ccc3c(n2)CN(c2cnn(CC(F)(F)F)c2)C3=O)cc1OCC(F)F` is 100 to 490 nM; for `CCOc1ncc(-c2cc(C)c3c(n2)CN(c2cnn(CC#N)c2)C3=O)cc1OC` it is below 100 nM; for `COc1cc(-c2ccc3c(n2)C(C)N(c2cc[nH]n2)C3=O)cnc1OC` (centres undefined) it is below 100 nM.
The figure for `COc1cncc(-c2cc(C)c3c(n2)C(C)N(c2cnn(CC(F)(F)F)c2)C3=O)c1` (centres undefined) is below 100 nM.
As for `COc1cc(-c2cc(C)c3c(n2)C2(CCCO2)N(c2cnn(CC(F)(F)F)c2)C3=O)cnc1OC` (centres undefined), the Ki is below 100 nM.
`COCc1cccc(-c2cc(C)c3c(n2)CN(c2cnn(C(C)(C)C#N)c2)C3=O)c1` displayed an inhibitory constant (Ki) of 100 to 490 nM.
`COc1cc(-c2cc(C)c3c(n2)C(C(C)C)N(c2cnn(CC(F)(F)F)c2)C3=O)cnc1OC` (centres undefined) showed a Ki below 100 nM.
The figure for `COc1ncc(-c2cc(C)c3c(n2)CN(c2cn[nH]c2)C3=O)cc1OCC(F)F` is below 100 nM.
The figure for `CCOc1cc(-c2cc(C)c3c(c2)C(C)N(c2cnn(CC(F)(F)F)c2)C3=O)cnc1OCC` (centres undefined) is below 100 nM; for `COc1csc(-c2cc(C)c3c(n2)CN(c2cnn(CC(F)(F)F)c2)C3=O)c1` it is below 100 nM.
